Source: patent US20260355199A1, “COMPOSITIONS AND METHODS FOR TREATING OR PREVENTING NONALCOHOLIC STEATOHEPATITIS (NASH), ANOREXIA, DEPRESSION, ENDOMETRIOSIS, AND OTHER DISEASES OR DISORDERS” (priority 2022, published 2026)
“Also recorded” adds a separate entry of the source.

Legend:
Tet3 mRNA = Tet3 mRNA (RT-qPCR) in GT1-7 cells; type: cell-based, mouse; details: 10 μM, 6 h
Method: (§1) For Bobcat339 treatment (FIG. 15A and FIG. 15B), GT1-7 cells grown in 24-well plates at 2×10^5 cells/well were incubated with vehicle or Bobcat339 at a final concentration of 10 μM for 6 h, followed by RNA and protein extractions. For TET3 protein stability assay (FIG. 15B), GT1-7 cells in 24-well plates at 2×10^5 cells/well were incubated with vehicle or Bobcat339 at a final concentration of 10 μM for 3 hours, followed by addition of cycloheximide (CHX, Cell Signaling, 2112) at a final concentration of […] in the presence of 10 μM of Bobcat339. Proteins were harvested at 0, 1, 2, and 3 hours after addition of CHX. For TET3 expression restoration experiments (FIG. 15C and FIG. 15D), GT1-7 or SH-SY5Y cells seeded in 24-well plates at 2×10^5 cells/well were infected with Ad-GFP or Ad-TET3 at 4000 gc/cell. Following 16 h of infection, vehicle or Bobcat339 were added at a final concentration of 10 μM. Protein and RNA were isolated 48 h later and analyzed.
Total RNAs were extracted from neuronal cells or homogenized hypothalamic arcuate nucleus tissue samples using PureLink RNA Mini Kit (Ambion, 12183025). cDNA was synthesized using PrimeScript RT Reagent Kit in a 20 μl reaction containing 0.5-1 μg of total RNA. Real-time quantitative PCR was performed in a 15 μl reaction containing 0.5-1 μl of cDNA using SsoAdvanced Universal SYBR Green Supermix in a Bio-Rad iCycler. […]

TET3 = TET3 protein in SH-SY5Y human neuronal cells; type: cell-based
Excerpt: Mouse GT1-7 hypothalamic neuronal cell line (Sigma-Aldrich, SCC116) and human SH-SY5Y neuroblastoma cell line (Sigma Aldrich, 94030304) were purchased and cultured according to the manufacturers' instructions. Purified Ad-TET3 adenovirus (Ad-FLAG.h-TET3, ADV-225322, Vector Biolabs) expressing human TET3 from a CMV promoter and Ad-GFP control adenovirus (1060, Vector Biolabs) were purchased.
as §1, with “analyzed. […]” for “analyzed.”

TGF-β1, IL-1β, and IL-6 = assay: TGF-β1, IL-1β and IL-6 expression in human MDMs; type: cell-based; details: TGF-β1-treated MDMs
Excerpt: Next, the studies examined effects of TET3 knockdown on expression of TGF-β1, IL-1β, and IL-6 in human MDMs. TGF-β1 has been mechanistically linked to the pathogenesis NSCLC, endometriosis, and NASH (Saito et al., 2018, Int J Mol Sci, 19; Young et al., 2017, Hum Reprod Update, 23:548-559; Cai et al., 2020, Cell Metab, 31:406-421; Baba et al., 2022, Front Pharmacol, 13:791272). It is also an important factor in the conditioned media responsible for inducing TET3 overexpression (FIG. 24H, FIG. 24J, and FIG. 24K through FIG. 24M). Therefore, MDMs were treated with TGF-β1 to mimic microenvironment-induced TET3 overexpression, followed by siRNA transfection and gene expression analyses. […] ELISA was not used to measure TGF-β1 because the transfection experiments were performed in the presence of exogenous TGF-β1. […]
Proinflammatory activation of peritoneal macrophages and MDMs was achieved by treatment with a combination of 10 ng/mL of LPS (Invitrogen, 00-4976-93) and 20 ng/mL of IFN-γ (R&D Systems, 485-MI-100). IL-1β and IL-6 protein levels in the supernatant of cultured mouse peritoneal macrophages were measured using ELISA kits (R&D Systems, MLB00C and M6000B-1). […]
IL-1β protein level of cell lysates and IL-6 protein level of cell supernatants were determined using the kits (Elabscience, E-EL-H0149c and E-EL-H6165, respectively) according to the manufacturer's protocols. […]

Q: How did the “Tet3 mRNA abundance” value (Tet3 mRNA) turn out when `Nc1nc(=O)n(-c2cccc(-c3ccccc3)c2)cc1Cl` [Bobcat339, 4-Amino-1-[1,1′-biphenyl]-3-yl-5-chloro-2(1H)-pyrimidinone] was run?
A: The value was “without affecting its mRNA abundance; also recorded: without altering its mRNA abundance; also recorded: no significant difference between the two groups”.

Q: What about the “TET3 protein level / degradation” value (TET3) of the same compound?
A: The value was “induced protein degradation of TET3”.

Q: What about the “TGF-β1, IL-1β, and IL-6 expression” value (TGF-β1, IL-1β, and IL-6) of the same compound?
A: The value was “able to recapitulate these effects on all three factors”.
